Measurements published in patent US9340574B2, “Inhibitors of protein tyrosine phosphatases” (Indiana University Research and Technology Corporation, priority 2012, dated 2016).
Like-named read-outs stand apart in the source and are kept apart here.

Key:
[1] = test system: diet-induced obese C57BL/6 mice; assay: Glucose tolerance test in diet-induced obese mice; conditions: 5 mg/kg i.p. twice a day
Procedure: (§1) C57BL/6J mice were fed a high-fat diet for 10 weeks before Compound 7 or vehicle was injected intraperitoneally twice a day at a dose of 5 mg/kg body weight. FIG. 5A depicts insulin tolerance tests (ITT) performed on Day 7 by injecting intraperitoneally a bolus of 0.75 unit/kg of human regular insulin. […] FIG. 5C depicts glucose tolerance tests (GTT) carried out on Day 9 after a bolus of 1 g/kg glucose was injected intraperitoneally. […] FIG. 5E depicts pyruvate tolerance tests (PTT) performed on Day 12 after an injection of 2 g/kg pyruvate solution. […] At the end of 2-week injections of Compound 7, animals were fasted overnight and stimulated with a bolus of 1 unit of human regular insulin or saline via vena cava. Three minutes later, liver, skeletal muscle, and white adipose tissue (WAT) were collected sequentially for insulin signaling analysis. FIG. 5G depicts the phosphorylation of Tyr1162/1163 in insulin receptor (IR) and Ser473 phosphorylation in Akt kinases and the corresponding proteins in the liver, skeletal muscle, and white adipose tissue (WAT) were analyzed by immunoblots.
(§2) To this end, we intraperitoneally injected Compound 7 into diet-induced obese C57BL/6 mice at a dose of 5 mg/kg twice a day. […] After 7 days of injections, we performed insulin tolerance tests to measure insulin sensitivity in vehicle and Compound 7 treated mice.

PTPμ = PTPμ (Homo sapiens (Human), UniProt P28827); assay: pNPP hydrolysis enzyme assay, PTPμ; assay type: biochemical
Chain of PTPμ (P28827 21-1452): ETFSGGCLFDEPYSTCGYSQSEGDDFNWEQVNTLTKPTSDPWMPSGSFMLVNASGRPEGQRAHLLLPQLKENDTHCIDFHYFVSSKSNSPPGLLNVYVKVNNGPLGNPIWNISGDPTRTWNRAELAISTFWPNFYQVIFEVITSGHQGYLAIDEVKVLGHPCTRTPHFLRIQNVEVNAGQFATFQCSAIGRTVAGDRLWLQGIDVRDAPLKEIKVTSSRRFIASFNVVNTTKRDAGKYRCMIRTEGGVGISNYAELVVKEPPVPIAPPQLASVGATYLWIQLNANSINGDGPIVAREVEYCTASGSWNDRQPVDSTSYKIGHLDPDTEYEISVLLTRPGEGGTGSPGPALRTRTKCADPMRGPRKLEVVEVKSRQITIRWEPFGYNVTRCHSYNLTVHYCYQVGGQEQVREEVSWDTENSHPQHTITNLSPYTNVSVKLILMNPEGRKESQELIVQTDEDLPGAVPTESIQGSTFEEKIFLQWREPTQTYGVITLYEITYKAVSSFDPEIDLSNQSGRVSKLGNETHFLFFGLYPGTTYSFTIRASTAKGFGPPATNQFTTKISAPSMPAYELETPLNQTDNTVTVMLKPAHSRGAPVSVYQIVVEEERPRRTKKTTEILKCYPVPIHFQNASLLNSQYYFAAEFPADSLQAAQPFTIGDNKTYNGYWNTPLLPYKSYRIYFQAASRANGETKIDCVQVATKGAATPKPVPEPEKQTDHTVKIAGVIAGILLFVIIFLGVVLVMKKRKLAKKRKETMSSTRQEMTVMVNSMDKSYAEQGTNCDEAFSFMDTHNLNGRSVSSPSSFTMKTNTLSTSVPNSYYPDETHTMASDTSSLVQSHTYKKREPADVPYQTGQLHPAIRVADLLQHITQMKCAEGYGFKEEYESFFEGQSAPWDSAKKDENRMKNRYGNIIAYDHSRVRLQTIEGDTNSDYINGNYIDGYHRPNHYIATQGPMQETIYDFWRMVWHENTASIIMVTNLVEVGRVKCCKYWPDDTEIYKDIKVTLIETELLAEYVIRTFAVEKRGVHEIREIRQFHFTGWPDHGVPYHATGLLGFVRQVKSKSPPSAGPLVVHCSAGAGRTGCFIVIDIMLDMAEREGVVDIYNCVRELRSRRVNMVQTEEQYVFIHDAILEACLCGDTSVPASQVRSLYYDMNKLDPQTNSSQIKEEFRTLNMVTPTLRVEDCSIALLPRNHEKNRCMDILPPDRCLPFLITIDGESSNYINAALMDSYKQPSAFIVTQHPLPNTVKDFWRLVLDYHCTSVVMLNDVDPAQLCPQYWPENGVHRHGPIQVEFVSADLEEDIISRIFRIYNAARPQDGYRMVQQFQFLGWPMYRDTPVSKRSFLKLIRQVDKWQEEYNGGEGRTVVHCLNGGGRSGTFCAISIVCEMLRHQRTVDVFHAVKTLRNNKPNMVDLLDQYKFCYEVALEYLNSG
Procedure: (§3) Enzyme kinetic assay. PTP activity was assayed using p-nitrophenyl phosphate (pNPP) as a substrate in 3,3-dimethylglutarate buffer (50 mM 3,3-dimethylglutarate, pH 7.0, 1 mM EDTA, 150 mM NaCl, 2 mM DTT, 0.1 mg/mL BSA) at 25° C. The assays were performed in 96-well plates. Normally, to determine the IC50 values, the reaction was initiated by the addition of enzyme (final concentration at 10 nM) to a reaction mixture (0.2 mL) containing 2 mM (Km for the substrate) pNPP with various concentrations of inhibitors. The reaction rate was measured using a SpectraMax Plus 384 Microplate Spectrophotometer (Molecular Devices). To determine the mode of inhibition, the reactions were initiated by the addition of PTP-MEG2 to the reaction mixtures (0.2 mL) containing various concentrations of pNPP with different concentrations of the inhibitor 7. Data were fitted using SigmaPlot Enzyme Kinetics Module (Systat Software, Inc.).

[2] = test system: diet-induced obese C57BL/6 mice; assay: Insulin tolerance test in diet-induced obese mice; assay type: in vivo, mouse; conditions: 5 mg/kg i.p. twice a day
Procedure: as §1, §2

[3] = Pharmacokinetics in mouse plasma; assay type: in vivo; conditions: for Cmax: mouse plasma
Procedure: Pharmacokinetic parameters for Compound 7. Compound 7 was quantified in mouse plasma using protein precipitation, internal standardization, and HPLC-MS/MS. Acetone was used to precipitate proteins and Compound 8 was the internal standard. Compound 7 and Compound 8 were separated using a C8 50×4.6 mm 5 um (Restek Ultra) HPLC column and a gradient mobile phase (acetonitrile:5 mM ammonium acetate). Compounds were detected using ESI in positive mode (Thermo Quantum Ultra; Thermo Fisher). The Q1/Q3 for Compound 7 and Compound 8 were 1087/300 and 957/231, respectively. The lower limit of quantification was 100 ng/mL using 20 μL of mouse plasma.
Pharmacokinetic parameters were estimated for Compound 7 after 5 mg/kg intravenous and 20 mg/kg intraperitoneal dosage, respectively. These parameters including area under the curve (AUC), area under the first moment curve (AUMC) and the elimination rate constant, kel, were estimated using noncompartmental methods with add-ins on Excel®. The maximum plasma concentration (Cmax) was obtained from the data. For the intravenous injection, the Cmax was estimated by extrapolating the data to zero time. The terminal half-life, t1/2, was estimated with 0.693/kel. The AUC from the last concentration, Clast, to infinity was estimated by Clast/kel. The systemic clearance (Cl or Cl/F) was calculated with dose/AUC0-∞ and the volume of distribution at steady state (Vdss or Vdss/F) was calculated using the Cl and the mean residence time (MRT; MRT=(Dose/AUC)×(AUMC/AUC)). The bioavailability (F) was estimated by comparing the Cl of intravenous and intraperitoneal injections.

TC-PTP = TC-PTP (Homo sapiens (Human), UniProt P17706); assay: pNPP hydrolysis enzyme assay, TC-PTP; assay type: biochemical; conditions: for IC50: pNPP substrate
Chain of TC-PTP (P17706 whole entry, looked up, species assumed): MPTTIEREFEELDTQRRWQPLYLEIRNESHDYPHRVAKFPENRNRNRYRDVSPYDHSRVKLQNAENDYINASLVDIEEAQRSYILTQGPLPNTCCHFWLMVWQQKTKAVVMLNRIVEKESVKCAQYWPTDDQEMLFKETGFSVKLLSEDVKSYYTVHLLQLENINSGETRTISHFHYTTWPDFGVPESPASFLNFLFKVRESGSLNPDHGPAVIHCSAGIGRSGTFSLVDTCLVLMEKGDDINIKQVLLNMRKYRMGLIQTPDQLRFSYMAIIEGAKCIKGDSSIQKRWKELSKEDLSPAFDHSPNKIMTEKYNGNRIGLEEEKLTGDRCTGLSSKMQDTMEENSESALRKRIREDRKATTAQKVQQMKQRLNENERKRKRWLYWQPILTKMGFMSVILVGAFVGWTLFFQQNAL
Procedure: as §3

CD45 = CD45 (Homo sapiens (Human), UniProt P08575); assay: pNPP hydrolysis enzyme assay, CD45; assay type: biochemical
Chain of CD45 (P08575 26-1306, species assumed): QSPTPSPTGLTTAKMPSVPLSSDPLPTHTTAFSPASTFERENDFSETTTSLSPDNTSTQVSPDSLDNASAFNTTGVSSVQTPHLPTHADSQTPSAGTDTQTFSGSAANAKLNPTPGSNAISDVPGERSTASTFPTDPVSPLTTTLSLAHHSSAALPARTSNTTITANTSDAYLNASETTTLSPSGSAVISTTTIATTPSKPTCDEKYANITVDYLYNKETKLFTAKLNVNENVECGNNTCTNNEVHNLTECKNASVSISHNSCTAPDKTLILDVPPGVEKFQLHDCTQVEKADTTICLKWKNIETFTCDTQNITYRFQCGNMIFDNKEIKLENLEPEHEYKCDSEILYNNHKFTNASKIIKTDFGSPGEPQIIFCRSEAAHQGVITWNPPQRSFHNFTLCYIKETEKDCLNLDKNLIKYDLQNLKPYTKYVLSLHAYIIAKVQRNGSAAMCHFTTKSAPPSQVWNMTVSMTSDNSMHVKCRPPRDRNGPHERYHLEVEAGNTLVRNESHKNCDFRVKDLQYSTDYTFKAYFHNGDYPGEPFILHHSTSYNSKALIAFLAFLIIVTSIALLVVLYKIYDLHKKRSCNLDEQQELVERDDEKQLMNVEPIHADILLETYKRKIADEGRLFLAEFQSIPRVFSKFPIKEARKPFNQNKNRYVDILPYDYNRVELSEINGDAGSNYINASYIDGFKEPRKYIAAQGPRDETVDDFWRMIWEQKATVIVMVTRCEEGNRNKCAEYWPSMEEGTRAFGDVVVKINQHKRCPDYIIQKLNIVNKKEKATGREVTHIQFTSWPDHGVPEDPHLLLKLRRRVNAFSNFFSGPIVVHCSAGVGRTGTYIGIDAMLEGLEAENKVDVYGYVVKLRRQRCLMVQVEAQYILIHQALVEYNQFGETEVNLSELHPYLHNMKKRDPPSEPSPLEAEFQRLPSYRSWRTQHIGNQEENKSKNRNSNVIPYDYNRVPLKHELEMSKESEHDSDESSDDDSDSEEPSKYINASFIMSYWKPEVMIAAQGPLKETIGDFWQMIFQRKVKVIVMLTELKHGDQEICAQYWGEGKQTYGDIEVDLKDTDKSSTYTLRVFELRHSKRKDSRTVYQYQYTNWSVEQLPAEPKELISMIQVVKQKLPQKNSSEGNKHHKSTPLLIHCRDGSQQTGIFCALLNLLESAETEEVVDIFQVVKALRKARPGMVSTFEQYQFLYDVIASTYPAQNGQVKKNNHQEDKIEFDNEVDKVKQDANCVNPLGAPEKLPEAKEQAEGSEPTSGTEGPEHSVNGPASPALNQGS
Procedure: as §3

[4] = test system: 3T3-L1 differentiated adipocytes; assay: Insulin signaling in 3T3-L1 differentiated adipocytes; assay type: cell-based; conditions: 3T3-L1 adipocytes, 1 hour pretreatment before insulin
Procedure: Cell lysate (20 μg protein) was subjected to 10% SDS-PAGE and probed with phospho-Akt, phospho-IR (Y1162/1163) or Akt antibody, respectively. […] Cell lysate (20 μg protein) was subjected to 10% SDS-PAGE and probed with phospho-IR(Y1162/1163), phospho-Akt (pS473) or total Akt antibody, respectively. […] Cell lysate (20 μg protein) or insulin receptor immunoprecipitation beads were subjected to 10% SDS-PAGE and probed with phospho-Akt, Akt, insulin receptor beta or phospho-tyrosine antibody (4G10), respectively. The non-specific band from insulin receptor immunoprecipitates served as a loading control for insulin receptor and phospho-insulin receptor.
Western blot analysis. Cells were homogenized in the lysis buffer (50 mM Hepes, pH 7.5, 150 mM NaCl, 10% Glycerol, 1% Triton X-100, 1.5 mM MgCl2, 1 mM EGTA, 10 μM Sodium Pyrophosphate, 100 mM sodium fluoride and freshly added 100 μM sodium vanadate, 1 mM PMSF, 10 μg/ml Aprotinin, and 10 μg/mL Leupeptin). Protein extracts were resolved on an SDS-PAGE gel and transferred to nitrocellulose membrane. […] Protein signals were detected by incubation with HRP-conjugated secondary antibodies, followed by ECL detection reagent (Pierce). Western blots were scanned and quantified using the Quantity One software (Bio-Rad).

LAR = LAR (Homo sapiens (Human), UniProt P10586); assay: pNPP hydrolysis enzyme assay, LAR; assay type: biochemical
Chain of LAR (P10586 whole entry, looked up, species assumed): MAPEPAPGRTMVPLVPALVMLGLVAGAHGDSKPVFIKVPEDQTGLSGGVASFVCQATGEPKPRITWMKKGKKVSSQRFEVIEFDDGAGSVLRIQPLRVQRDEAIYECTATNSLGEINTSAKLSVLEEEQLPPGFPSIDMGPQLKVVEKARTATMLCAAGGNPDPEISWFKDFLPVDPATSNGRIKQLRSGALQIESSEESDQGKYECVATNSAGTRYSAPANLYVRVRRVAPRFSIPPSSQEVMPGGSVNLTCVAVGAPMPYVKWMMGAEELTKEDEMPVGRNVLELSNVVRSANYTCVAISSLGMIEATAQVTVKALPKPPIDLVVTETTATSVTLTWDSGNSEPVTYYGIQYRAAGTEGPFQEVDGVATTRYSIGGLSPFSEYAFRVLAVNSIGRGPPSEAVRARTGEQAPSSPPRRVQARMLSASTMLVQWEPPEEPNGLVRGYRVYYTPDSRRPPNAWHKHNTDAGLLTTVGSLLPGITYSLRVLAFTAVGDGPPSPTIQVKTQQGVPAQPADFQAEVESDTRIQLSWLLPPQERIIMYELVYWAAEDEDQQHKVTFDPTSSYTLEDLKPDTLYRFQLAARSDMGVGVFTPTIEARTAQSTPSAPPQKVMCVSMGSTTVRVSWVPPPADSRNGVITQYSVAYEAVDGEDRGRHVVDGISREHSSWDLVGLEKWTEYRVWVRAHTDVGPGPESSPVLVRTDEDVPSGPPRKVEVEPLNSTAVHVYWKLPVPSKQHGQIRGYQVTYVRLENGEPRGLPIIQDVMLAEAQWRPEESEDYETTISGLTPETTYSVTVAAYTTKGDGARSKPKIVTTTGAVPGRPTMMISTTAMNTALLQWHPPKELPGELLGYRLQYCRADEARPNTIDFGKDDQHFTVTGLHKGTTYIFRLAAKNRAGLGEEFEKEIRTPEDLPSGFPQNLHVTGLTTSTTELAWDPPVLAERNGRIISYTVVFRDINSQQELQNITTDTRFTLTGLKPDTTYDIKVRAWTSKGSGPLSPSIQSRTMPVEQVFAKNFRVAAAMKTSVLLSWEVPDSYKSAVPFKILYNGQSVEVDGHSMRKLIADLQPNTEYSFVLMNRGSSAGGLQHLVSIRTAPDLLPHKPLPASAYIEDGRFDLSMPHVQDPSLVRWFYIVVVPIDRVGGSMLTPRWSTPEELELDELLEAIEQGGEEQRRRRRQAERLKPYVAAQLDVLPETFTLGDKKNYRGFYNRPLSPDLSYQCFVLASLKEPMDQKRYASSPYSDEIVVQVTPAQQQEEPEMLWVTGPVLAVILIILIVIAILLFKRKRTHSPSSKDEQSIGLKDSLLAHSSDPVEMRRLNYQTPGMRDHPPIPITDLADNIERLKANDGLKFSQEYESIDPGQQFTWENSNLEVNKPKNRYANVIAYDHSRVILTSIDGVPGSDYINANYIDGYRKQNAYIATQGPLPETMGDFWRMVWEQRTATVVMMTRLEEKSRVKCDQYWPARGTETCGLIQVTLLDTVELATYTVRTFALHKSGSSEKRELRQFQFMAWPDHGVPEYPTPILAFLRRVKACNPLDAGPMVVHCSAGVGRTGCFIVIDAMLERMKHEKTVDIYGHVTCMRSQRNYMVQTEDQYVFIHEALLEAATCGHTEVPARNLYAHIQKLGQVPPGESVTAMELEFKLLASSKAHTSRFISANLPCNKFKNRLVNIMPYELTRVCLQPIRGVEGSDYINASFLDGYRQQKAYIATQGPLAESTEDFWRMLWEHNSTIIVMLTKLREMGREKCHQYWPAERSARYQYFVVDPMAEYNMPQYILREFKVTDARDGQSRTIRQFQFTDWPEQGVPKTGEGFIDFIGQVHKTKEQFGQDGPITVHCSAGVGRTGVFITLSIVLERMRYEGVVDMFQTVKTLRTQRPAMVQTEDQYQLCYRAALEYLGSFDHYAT
Procedure: as §3

[5] = mouse, 20 mg/Kg intraperitoneal injection
[6] = plasma, mouse, 5 mg/Kg intravenous injection

COc1cc(CC(=O)NCC(NC(=O)C(CCCNC(=O)c2cccc(I)c2)NC(=O)C(Cc2ccc(C(F)(F)P(=O)(O)O)cc2)NC(=O)c2ccc(C)c(Br)c2)C(N)=O)ccc1O (centres unmarked) [Compound 7]
glucose clearance in glucose tolerance test ([1]; Day 9, at 15, 30, and 60 minutes): significantly enhanced glucose clearance | improvement in glucose disposal (AUC) ([1]; Day 9, vs vehicle): 21% | IC50 (PTPμ): > 10000 nM | insulin sensitivity in insulin tolerance test ([2]; Day 7, at 15 and 60 minutes after 0.75 unit insulin): significantly improved insulin sensitivity | improvement in insulin tolerance (AUC) ([2]; Day 7, vs vehicle): 14% | Cmax ([3]; ip, 20 mg/Kg intraperitoneal injection): 4.5 µM | Cmax ([3]; 5 mg/Kg intravenous injection, extrapolated to zero time): 25.7 µM | Cl/F [3, 5]: 0.047 L/h | t1/2 [3, 5]: 1.8 h | half-life ([3]; plasma, ip, mouse, 20 mg/Kg intraperitoneal injection): 1.8 h | Vd/F ([3]; plasma, ip, mouse, 20 mg/Kg intraperitoneal injection, read-out: Vdss/F): 0.08 L | clearance [3, 6]: 0.233 mL/min | half-life [3, 6]: 0.8 h | Vd ([3]; plasma, mouse, 5 mg/Kg intravenous injection, read-out: Vdss): 0.007 L | IC50 (TC-PTP; read-out: IC50 (nM) TC-PTP): 830 nM | IC50 (TC-PTP; read-out: IC50 for TC-PTP): 830 nM | selectivity for PTP-MEG2 over TC-PTP (TC-PTP; ratio of IC50 values): more than 10 fold | IC50 (CD45): > 10000 nM | insulin signaling (phospho-Akt, phospho-IR) [4]: augmented insulin signaling | IC50 (LAR): > 10000 nM
